Laboratory results from US9913816B2, “Method for applying metformin and sodium butyrate in K-ras mutation cancer treatment” (Johnpro Biotech Inc., priority 2013, dated 2018).

Tested on: HCT116 cells
Details: 72 hours; final concentration 0.75 mM sodium butyrate, 2 mM metformin, alone or both in combination; FIG. 1
Description: The human colon cancer cell HCT116 (cell line with K-ras mutation) is cultured in the McCoy's 5A with 10% fetal bovine serum. When the HCT116 cells are cultured to the appropriate number, then the adherent HCT116 cells are suspended, and 2.5×10^5 HCT116 cells per well are seeded in a 6-wells dish. After incubated for 12 hours, sodium butyrate with a final concentration of 0.75 mM, metformin with a final concentration of 2 mM, and the pharmaceutical composition with final concentration of […] are respectively added to the 6-wells dish as above mentioned.
In this embodiment, the final concentration as mentioned means the concentration of respective substances after added in the medium for cell culture, and therefore the medium respectively contains 0.75 mM sodium butyrate, 2 mM metformin, or 0.75 mM sodium butyrate and 2 mM metformin.
After respectably added the above compounds to HCT116 cells, the 6-well dish is incubated in an incubator of 37° C. for 72 hours. After that, the medium and compounds in each well are sequentially removed, and each well is washed by Phosphate Buffered Saline (PBS), then the HCT116 cells are harvested, by treating trypsin-EDTA, for apoptosis analysis.
The apoptosis analysis is based on the Annexin V apoptosis detection kit (BD Pharmingen) for analysis the exposure of phosphatidylserine, and the protocol follows the accompanying manual. In brief, the treated HCT116 cells are washed three times with PBS, and then immediately stained with Annexin V/Propidium Iodide (PI). 1% fetal bovine serum albumin (BSA) is first added to the treated cells. After subsequently added 222.5 μl of binding buffer, 10 μl of PI and 2.5 μl of Annexin V-FITC are directly then added to stain the cells, followed by immediate incubation for 10 minutes at low temperature in the dark. The percentage of the apoptosis is calculated by the flow cytometry and FACSCalibur, the analysis software thereof.

Row | Structure (SMILES) | apoptotic rate of HCT116 cells | improvement of apoptotic rate compared to the control group
1 | CN(C)C(=N)N=C(N)N [metformin] | about 20% | about 15%
2 | CCCC(=O)[O-].[Na+] [sodium butyrate] | about 20% | about 15%
